# From article PMC3531252 (EJNMMI Research, 2012)
# How the values were obtained:
# GlyT1 [1] = assay: PET measurements using a cynomolgus monkey; assay type: in vivo
# Procedure: PET measurements were performed for 123 min immediately after intravenous (i.v.) injection of radioligand at baseline and after pretreatment with SSR504734. SSR504734 was administered over 15 min, starting 30 min before the radioligand injection. PET measurements were performed on two separate days at a 6-week interval. One baseline PET measurement and one PET measurement after pretreatment with 0.1 mg/kg of SSR504734 were performed on the first day. One baseline PET measurement and two PET measurements after pretreatment with 0.5 and 1.5 mg/kg of SSR504734 were performed on the second day.
# Regions of interest (ROI) for the thalamus, cerebellum, caudate, putamen, frontal cortex, temporal cortex, anterior cingulate cortex, pons, white matter, and the whole-brain contour were delineated on PET/MRI co-registered brain images for each monkey. […] PET data were analyzed using several parameters such as percent injected dose (%ID) and percent standard uptake value (%SUV), where
# GlyT1 [2] = assay: PET measurements using rhesus monkeys, VT by two-tissue compartment model; assay type: in vivo, rhesus monkey; parameters: VT (baseline) WB / VT (baseline) THA / VT (baseline) CB / VT (baseline) CAU / VT (baseline) FC / VT (baseline) ACC / VT (baseline) TC: unit not given here; settings: for VT (baseline) ACC / VT (baseline) CAU / VT (baseline) CB / VT (baseline) FC / VT (baseline) Pons / VT (baseline) PUT / VT (baseline) TC / VT (baseline) THA / VT (baseline) WB: 2TC
# Procedure: PET measurements were performed using a high-resolution research tomograph (CTI/Siemens Molecular Imaging, Knoxville, TN, USA) with an in-plane resolution less than 1.5 mm FWHM in the center of the FOV [30]. PET data were acquired by list mode. The data were reconstructed with a series of frames (5 × 1 min, 5 × 3 min, 5 × 6 min, and 13 × 10 min) using the Ordinary Poisson-3D-Ordered Subset Expectation Maximization (OP03D-OSEM) algorithm with 10 iterations and 16 subsets including modeling of the points spread function. Image reconstruction was performed on a quad-core PC running a fast reconstruction algorithm.
# Anesthesia was induced by intramuscular injection of ketamine hydrochloride (60 mg) and maintained by the administration of a mixture of sevoflurane, O2, and medical air after endotracheal intubation. The head was immobilized with a fixation device. Body temperature was maintained by Bair Hugger Model 505 (Arizant Healthcare, MN, USA) and monitored by an esophageal thermometer. ECG, heart rate, respiratory rate, and oxygen saturation were continuously monitored throughout the experiments. Blood pressure was monitored every 5 min.
# (§1) PET measurements were performed for 123 min immediately after i.v. injection of radioligand at baseline and after pretreatment with SSR504734. SSR504734 was administered over 15 min, starting 30 min before the radioligand injection. PET measurements were performed on two separate days with two monkeys. One baseline PET measurement and one PET measurement after pretreatment with 1.5 mg/kg of SSR504734 were performed on one monkey. One baseline PET measurement and one PET measurement after pretreatment with 4.5 mg/kg were performed on the other monkey.
# During each PET measurement, arterial blood was collected continuously for 3 min using an automated blood-sampling system at a speed of 3.0 mL/min (Allog AB, Molndal, Sweden). Blood samples (1.0 to 2.5 mL) were drawn at 4, 15, 30, 60, 90, and 120 min after the radioligand injection for blood and plasma radioactivity and metabolite correction.
# Regions of interest (ROI) for the thalamus, cerebellum, caudate, putamen, frontal cortex, temporal cortex, anterior cingulate cortex, pons, white matter, and the whole-brain contour were delineated on PET/MRI co-registered brain images for each monkey. Co-registrations and ROI delineations were performed using PMOD 3.0 (Pixel-Wise Modeling Computer Software, PMOD Group, Zurich, Switzerland). PET data were analyzed using several parameters such as percent injected dose (%ID) and percent standard uptake value (%SUV), where
# %ID=total radioactivity in the whole brain (MBq)/injected radioactivity (MBq)×100
# %SUV=radioactivity (MBq/cc)/injected radioactivity (MBq)×body weight g×100.
# In the PET measurements using rhesus monkeys, the total distribution volume (VT) was calculated by a two-tissue compartment model as well.
# GlyT1 [3] = assay: GlyT1 occupancy and VND by Lassen plot, PET in rhesus monkeys; assay type: in vivo, rhesus monkey; settings: for % of VND in VT ACC: anterior cingulate cortex; for % of VND in VT FC: frontal cortex; for % of VND in VT PUT: putamen; for % of VND in VT TC: temporal cortex
# Procedure: as §1
# GlyT1 occupancy was estimated by applying Lassen plot approach, which can determine nondisplaceable distribution volume (VND) and occupancy using VT values at baseline and after pretreatment. Seven regions (the pons, cerebellum, putamen, frontal cortex, caudate, anterior cingulate cortex, and temporal cortex) were used for the plot.
# [4] = metabolite analysis of plasma by radio-HPLC during PET; assay type: in vivo, cynomolgus monkey
# Procedure: During each PET measurement, venous blood samples were taken from a femoral vein for the measurement of [^11 C]
# From the obtained blood samples, plasma was obtained after centrifugation at 2,000 × g for 2 to 4 min and was mixed with 1.4 times the volume of acetonitrile. The supernatant acetonitrile-plasma mixture obtained after centrifugation at 2,000 × g for 2 to 4 min was injected into the radio-HPLC system. HPLC analysis was performed on a Waters μ-Bondapak-C18 column (300 × 7.8 mm, 10 μm) by gradient elution using (a) ammonium formate (100 mM) and (b) acetonitrile at 6.0 mL/min.
# [5] = baseline + blocking (1.5 mg/kg)
# [6] = baseline + blocking (4.5 mg/kg)
smiles,measurement,setting,value
"[11CH3]N1CCCCC1[C@@H](NC(=O)c1cccc(C(F)(F)F)c1Cl)c1ccccc1 (stereo partly drawn) [[^11 C]N-methyl-SSR504734, 2-chloro N-[(S)-{(S)-1-[^11 C]methylpiperidin-2-yl} (phenyl)methyl] 3-trifluoromethyl-benzamide]",rank order of regional brain uptake,GlyT1 [1]; baseline,thalamus > pons > cerebellum ≒ putamen > cortical regions > white matter
same,time of whole brain peak,"GlyT1 [1]; baseline, N = 2",24 min
same,radioactivity level in brain after pretreatment with SSR504734,"GlyT1 [1]; pretreatment 0.1 to 1.5 mg/kg SSR504734, dose-dependent",increased in all regions
same,rank order of regional brain uptake,GlyT1 [2]; baseline,thalamus > pons > putamen > frontal cortex≒temporal cortex > cerebellum> > white matter
same,uptake in the brain regions after pretreatment with SSR504734,GlyT1 [2]; pretreatment 1.5 and 4.5 mg/kg SSR504734,increase
same,VT (baseline) ACC,"GlyT1 [2]; rhesus monkey 1, anterior cingulate cortex",28.6
same,VT (Blocking (1.5 mg/kg)) ACC,"GlyT1 [2]; rhesus monkey 1, anterior cingulate cortex, after SSR504734 1.5 mg/kg",22.5
same,% decrease of VT ACC,"GlyT1 [2]; rhesus monkey 1, anterior cingulate cortex, baseline to blocking with SSR504734 1.5 mg/kg",21.3%
same,VT (baseline) CAU,"GlyT1 [2]; rhesus monkey 1, caudate",26.2
same,VT (Blocking (1.5 mg/kg)) CAU,"GlyT1 [2]; rhesus monkey 1, caudate, after SSR504734 1.5 mg/kg",22.0
same,% decrease of VT CAU,"GlyT1 [2]; rhesus monkey 1, caudate, baseline to blocking with SSR504734 1.5 mg/kg",16.0%
same,VT (baseline) CB,"GlyT1 [2]; rhesus monkey 1, cerebellum",23.7
same,VT (Blocking (1.5 mg/kg)) CB,"GlyT1 [2]; rhesus monkey 1, cerebellum, after SSR504734 1.5 mg/kg",20.4
same,% decrease of VT CB,"GlyT1 [2]; rhesus monkey 1, cerebellum, baseline to blocking with SSR504734 1.5 mg/kg",13.9%
same,VT (baseline) FC,"GlyT1 [2]; rhesus monkey 1, frontal cortex",25.2
same,VT (Blocking (1.5 mg/kg)) FC,"GlyT1 [2]; rhesus monkey 1, frontal cortex, after SSR504734 1.5 mg/kg",20.6
same,% decrease of VT FC,"GlyT1 [2]; rhesus monkey 1, frontal cortex, baseline to blocking with SSR504734 1.5 mg/kg",18.3%
same,VT (baseline) Pons,"GlyT1 [2]; rhesus monkey 1, pons",35.2
same,VT (Blocking (1.5 mg/kg)) Pons,"GlyT1 [2]; rhesus monkey 1, pons, after SSR504734 1.5 mg/kg",26.8
same,% decrease of VT Pons,"GlyT1 [2]; rhesus monkey 1, pons, baseline to blocking with SSR504734 1.5 mg/kg",23.9%
same,VT (baseline) PUT,"GlyT1 [2]; rhesus monkey 1, putamen",26.7
same,VT (Blocking (1.5 mg/kg)) PUT,"GlyT1 [2]; rhesus monkey 1, putamen, after SSR504734 1.5 mg/kg",22.8
same,% decrease of VT PUT,"GlyT1 [2]; rhesus monkey 1, putamen, baseline to blocking with SSR504734 1.5 mg/kg",14.6%
same,VT (baseline) TC,"GlyT1 [2]; rhesus monkey 1, temporal cortex",25.6
same,VT (Blocking (1.5 mg/kg)) TC,"GlyT1 [2]; rhesus monkey 1, temporal cortex, after SSR504734 1.5 mg/kg",21.8
same,% decrease of VT TC,"GlyT1 [2]; rhesus monkey 1, temporal cortex, baseline to blocking with SSR504734 1.5 mg/kg",14.8%
same,VT (baseline) THA,"GlyT1 [2]; rhesus monkey 1, thalamus",31.0
same,VT (Blocking (1.5 mg/kg)) THA,"GlyT1 [2]; rhesus monkey 1, thalamus, after SSR504734 1.5 mg/kg",29.6
same,% decrease of VT THA,"GlyT1 [2]; rhesus monkey 1, thalamus, baseline to blocking with SSR504734 1.5 mg/kg",4.5%
same,VT (baseline) WB,"GlyT1 [2]; rhesus monkey 1, whole brain",23.1
same,VT (Blocking (1.5 mg/kg)) WB,"GlyT1 [2]; rhesus monkey 1, whole brain, after SSR504734 1.5 mg/kg",18.6
same,VT (baseline) ACC,"GlyT1 [2]; rhesus monkey 2, anterior cingulate cortex",15.5
same,VT (Blocking (4.5 mg/kg)) ACC,"GlyT1 [2]; rhesus monkey 2, anterior cingulate cortex, after SSR504734 4.5 mg/kg",9.0
same,% decrease of VT ACC,"GlyT1 [2]; rhesus monkey 2, anterior cingulate cortex, baseline to blocking with SSR504734 4.5 mg/kg",41.9%
same,VT (baseline) CAU,"GlyT1 [2]; rhesus monkey 2, caudate",17.0
same,VT (Blocking (4.5 mg/kg)) CAU,"GlyT1 [2]; rhesus monkey 2, caudate, after SSR504734 4.5 mg/kg",9.2
same,% decrease of VT CAU,"GlyT1 [2]; rhesus monkey 2, caudate, baseline to blocking with SSR504734 4.5 mg/kg",45.9%
same,VT (baseline) CB,"GlyT1 [2]; rhesus monkey 2, cerebellum",12.8
same,VT (Blocking (4.5 mg/kg)) CB,"GlyT1 [2]; rhesus monkey 2, cerebellum, after SSR504734 4.5 mg/kg",9.0
same,% decrease of VT CB,"GlyT1 [2]; rhesus monkey 2, cerebellum, baseline to blocking with SSR504734 4.5 mg/kg",29.7%
same,VT (baseline) FC,"GlyT1 [2]; rhesus monkey 2, frontal cortex",14.3
same,VT (Blocking (4.5 mg/kg)) FC,"GlyT1 [2]; rhesus monkey 2, frontal cortex, after SSR504734 4.5 mg/kg",8.6
same,% decrease of VT FC,"GlyT1 [2]; rhesus monkey 2, frontal cortex, baseline to blocking with SSR504734 4.5 mg/kg",39.9%
same,VT (baseline) Pons,"GlyT1 [2]; rhesus monkey 2, pons",16.9
same,VT (Blocking (4.5 mg/kg)) Pons,"GlyT1 [2]; rhesus monkey 2, pons, after SSR504734 4.5 mg/kg",10.9
same,% decrease of VT Pons,"GlyT1 [2]; rhesus monkey 2, pons, baseline to blocking with SSR504734 4.5 mg/kg",35.5%
same,VT (baseline) PUT,"GlyT1 [2]; rhesus monkey 2, putamen",15.8
same,VT (Blocking (4.5 mg/kg)) PUT,"GlyT1 [2]; rhesus monkey 2, putamen, after SSR504734 4.5 mg/kg",10.1
same,% decrease of VT PUT,"GlyT1 [2]; rhesus monkey 2, putamen, baseline to blocking with SSR504734 4.5 mg/kg",36.1%
same,VT (baseline) TC,"GlyT1 [2]; rhesus monkey 2, temporal cortex",12.3
same,VT (Blocking (4.5 mg/kg)) TC,"GlyT1 [2]; rhesus monkey 2, temporal cortex, after SSR504734 4.5 mg/kg",8.9
same,% decrease of VT TC,"GlyT1 [2]; rhesus monkey 2, temporal cortex, baseline to blocking with SSR504734 4.5 mg/kg",27.6%
same,VT (baseline) THA,"GlyT1 [2]; rhesus monkey 2, thalamus",15.7
same,VT (Blocking (4.5 mg/kg)) THA,"GlyT1 [2]; rhesus monkey 2, thalamus, after SSR504734 4.5 mg/kg",11.9
same,% decrease of VT THA,"GlyT1 [2]; rhesus monkey 2, thalamus, baseline to blocking with SSR504734 4.5 mg/kg",24.2%
same,VT (baseline) WB,"GlyT1 [2]; rhesus monkey 2, whole brain",12.6
same,VT (Blocking (4.5 mg/kg)) WB,"GlyT1 [2]; rhesus monkey 2, whole brain, after SSR504734 4.5 mg/kg",8.5
same,% decrease of VT WB,"GlyT1 [2]; rhesus monkey 2, whole brain, baseline to blocking with SSR504734 4.5 mg/kg",32.5%
same,VND,"GlyT1 [3]; baseline + blocking 1.5 mg/kg SSR504734, rhesus monkey 1, one value for all regions",16.5
same,VND,"GlyT1 [3]; baseline + blocking 4.5 mg/kg SSR504734, rhesus monkey 2, one value for all regions",7.5
same,% of VND in VT ACC,GlyT1 [3]; [5],59%
same,% of VND in VT CAU,"GlyT1 [3]; baseline + blocking (1.5 mg/kg), caudate",55%
same,% of VND in VT CB,"GlyT1 [3]; baseline + blocking (1.5 mg/kg), cerebellum",50%
same,% of VND in VT FC,GlyT1 [3]; [5],52%
same,% of VND in VT Pons,"GlyT1 [3]; baseline + blocking (1.5 mg/kg), pons",66%
same,% of VND in VT PUT,GlyT1 [3]; [5],55%
same,% of VND in VT TC,GlyT1 [3]; [5],54%
same,% of VND in VT ACC,GlyT1 [3]; [6],52%
same,% of VND in VT FC,GlyT1 [3]; [6],48%
same,% of VND in VT PUT,GlyT1 [3]; [6],53%
same,% of VND in VT TC,GlyT1 [3]; [6],39%
same,metabolites detected in the plasma,"[4]; radiochromatograms, 4 and 90 min",more hydrophilic metabolites
same,fraction metabolized in plasma,[4]; within 90 min after injection,over 70%
